These results are taken from ChEMBL document CHEMBL1221359, “The discovery of a series of N-substituted 3-(4-piperidinyl)-1,3-benzoxazolinones and oxindoles as highly brain penetrant, selective muscarinic M1 agonists” (Bioorg Med Chem Lett, 2010).

Data set [1] addresses T1, Muscarinic acetylcholine receptor M1 (Homo sapiens, UniProt P11229).
T1 sequence (P11229 whole entry): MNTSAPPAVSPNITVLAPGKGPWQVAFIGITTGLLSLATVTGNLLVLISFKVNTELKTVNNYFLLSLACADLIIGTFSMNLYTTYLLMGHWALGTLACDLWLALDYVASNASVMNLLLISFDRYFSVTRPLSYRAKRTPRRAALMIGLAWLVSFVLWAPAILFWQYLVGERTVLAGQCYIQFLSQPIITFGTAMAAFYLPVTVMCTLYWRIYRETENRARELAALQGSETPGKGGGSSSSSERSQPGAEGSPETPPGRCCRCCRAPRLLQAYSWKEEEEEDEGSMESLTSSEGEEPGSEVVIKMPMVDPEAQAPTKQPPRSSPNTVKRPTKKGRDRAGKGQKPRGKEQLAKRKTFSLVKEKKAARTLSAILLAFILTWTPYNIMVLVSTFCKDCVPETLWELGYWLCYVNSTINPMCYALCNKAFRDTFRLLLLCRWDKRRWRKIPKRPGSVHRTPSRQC
The data set can be described thus: Agonist activity at human muscarinic M1 receptor expressed in CHO cells assessed as effect on calcium mobilization by FLIPR assay. It counts as functional, cell-based. On the technique in general: Calcium assays in cells follow changes in intracellular calcium, usually with a dye or a luminescent sensor.

Data set [2] has as its target T2, Muscarinic acetylcholine receptor M2 (Homo sapiens, UniProt P08172).
T2 sequence (P08172 whole entry): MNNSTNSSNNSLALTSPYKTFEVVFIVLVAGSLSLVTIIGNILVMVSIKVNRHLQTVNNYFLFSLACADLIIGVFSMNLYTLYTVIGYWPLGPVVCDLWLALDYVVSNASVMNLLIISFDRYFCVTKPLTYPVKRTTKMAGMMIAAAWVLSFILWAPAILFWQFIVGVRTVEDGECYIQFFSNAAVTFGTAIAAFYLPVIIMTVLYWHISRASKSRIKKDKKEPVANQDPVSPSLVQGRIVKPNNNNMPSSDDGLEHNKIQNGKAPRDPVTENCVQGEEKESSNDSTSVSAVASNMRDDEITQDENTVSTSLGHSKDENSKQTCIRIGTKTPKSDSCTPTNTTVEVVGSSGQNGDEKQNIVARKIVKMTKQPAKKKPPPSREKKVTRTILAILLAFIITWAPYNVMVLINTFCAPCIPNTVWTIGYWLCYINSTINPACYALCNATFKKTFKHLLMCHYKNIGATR
The data set can be described thus: Agonist activity at human muscarinic M2 receptor expressed in CHO cells co-expressing Gqi5 chimeric G-protein assessed as effect on calcium mobilization by FLIPR assay. It counts as functional, cell-based.

For data set [3], the target named is Muscarinic acetylcholine receptor M3 (Homo sapiens, UniProt P20309). Kind of data set: Agonist activity at human muscarinic M3 receptor expressed in CHO cells assessed as effect on calcium mobilization by FLIPR assay. The data set is classed as functional, cell-based.
Chain of Muscarinic acetylcholine receptor M3 (P20309 whole entry): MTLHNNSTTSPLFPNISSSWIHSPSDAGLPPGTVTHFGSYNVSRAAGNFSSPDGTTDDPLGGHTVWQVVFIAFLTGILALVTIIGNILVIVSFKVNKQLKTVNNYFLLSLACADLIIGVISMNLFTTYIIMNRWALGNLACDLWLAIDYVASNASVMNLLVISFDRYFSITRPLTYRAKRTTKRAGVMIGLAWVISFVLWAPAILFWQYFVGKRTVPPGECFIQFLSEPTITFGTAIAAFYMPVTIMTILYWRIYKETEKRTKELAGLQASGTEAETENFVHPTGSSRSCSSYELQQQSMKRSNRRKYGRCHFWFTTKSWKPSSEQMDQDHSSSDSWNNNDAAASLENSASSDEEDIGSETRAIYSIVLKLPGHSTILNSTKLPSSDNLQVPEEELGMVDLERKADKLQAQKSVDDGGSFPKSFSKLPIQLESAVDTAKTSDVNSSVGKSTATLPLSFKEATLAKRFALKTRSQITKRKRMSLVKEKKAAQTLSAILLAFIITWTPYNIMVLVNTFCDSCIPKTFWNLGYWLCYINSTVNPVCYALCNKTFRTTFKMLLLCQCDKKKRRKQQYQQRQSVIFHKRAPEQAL
Data set [4] addresses T3, Muscarinic acetylcholine receptor M4 (Homo sapiens, UniProt P08173).
T3 sequence (P08173 whole entry): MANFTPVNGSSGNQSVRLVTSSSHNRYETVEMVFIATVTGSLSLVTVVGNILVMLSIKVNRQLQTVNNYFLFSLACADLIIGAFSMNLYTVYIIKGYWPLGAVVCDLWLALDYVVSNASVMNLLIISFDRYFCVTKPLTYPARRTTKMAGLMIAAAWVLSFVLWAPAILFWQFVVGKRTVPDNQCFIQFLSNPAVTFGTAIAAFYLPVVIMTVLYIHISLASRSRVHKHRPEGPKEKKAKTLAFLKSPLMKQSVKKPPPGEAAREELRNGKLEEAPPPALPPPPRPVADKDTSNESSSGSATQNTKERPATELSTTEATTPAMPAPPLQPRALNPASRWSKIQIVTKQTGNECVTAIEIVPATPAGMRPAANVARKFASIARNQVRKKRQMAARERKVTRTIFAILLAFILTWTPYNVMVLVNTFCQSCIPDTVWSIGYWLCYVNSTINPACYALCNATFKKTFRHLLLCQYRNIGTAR
The data set can be described thus: Agonist activity at human muscarinic M4 receptor expressed in CHO cells co-expressing Gqi5 chimeric G-protein assessed as effect on calcium mobilization by FLIPR assay. It counts as functional, cell-based.

Data set [5] has as its target T4, Muscarinic acetylcholine receptor M5 (Homo sapiens, UniProt P08912).
T4 sequence (P08912 whole entry): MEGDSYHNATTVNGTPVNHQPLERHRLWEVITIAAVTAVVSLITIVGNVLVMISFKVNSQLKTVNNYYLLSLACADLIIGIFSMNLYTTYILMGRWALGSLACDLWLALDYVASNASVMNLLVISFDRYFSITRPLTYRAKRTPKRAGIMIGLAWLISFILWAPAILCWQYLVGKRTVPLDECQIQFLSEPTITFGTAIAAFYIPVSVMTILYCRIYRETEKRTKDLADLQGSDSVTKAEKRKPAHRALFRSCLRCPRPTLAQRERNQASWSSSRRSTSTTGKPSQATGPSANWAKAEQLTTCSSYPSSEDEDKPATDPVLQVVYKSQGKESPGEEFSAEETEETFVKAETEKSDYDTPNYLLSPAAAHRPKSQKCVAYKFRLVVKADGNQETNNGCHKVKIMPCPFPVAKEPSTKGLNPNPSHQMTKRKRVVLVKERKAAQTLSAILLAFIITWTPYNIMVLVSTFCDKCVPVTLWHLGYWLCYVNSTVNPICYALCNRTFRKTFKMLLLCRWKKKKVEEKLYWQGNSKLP
The data set can be described thus: Agonist activity at human muscarinic M5 receptor expressed in CHO cells assessed as effect on calcium mobilization by FLIPR assay. It counts as functional, cell-based.

Data set [6] is described as follows: Clearance in rat blood at 3 mg/kg, po. Also on record: dose 3 mg/kg, route oral. It counts as ADME, organism-based.
The nature of data set [7]: Ratio of drug level in brain to blood in rat at 3 mg/kg, po. The data set is classed as ADME, organism-based. Also on record: dose 3 mg/kg, route oral.
The test system of data set [8] is Brain. The data set can be described thus: Drug level in rat brain assessed as tissue binding. The data set is classed as ADME, tissue-based.
Data set [9] is described as follows: Drug level in rat whole blood assessed as tissue binding. It counts as ADME, tissue-based.
Data set [10] in a line: Inhibition of sigma receptor at 10 uM.
Data set [11] has as its system Rattus norvegicus. The data set can be described thus: Cognitive enhancing effect in rat assessed as reversal of temporal-induced memory deficit at 1 mg/kg by novel object recognition assay. Also on record: dose 1 mg/kg. The data set is classed as functional, organism-based.
For data set [12], the species on record is Rattus norvegicus. Kind of data set: Cognitive enhancing effect in rat assessed as reversal of temporal-induced memory deficit by novel object recognition assay. It counts as functional, organism-based.
Data set [13] is described as follows: Ratio of drug level in brain to blood in rat at 1 mg/kg, iv. The data set is classed as ADME, organism-based. Also on record: dose 1 mg/kg, route intravenous.

SMILES strings stand for the structures. The source made the active and inactive calls. The calls are words filed in the database; no cut-off is given here.

Turning to `CCO[C@H]1CC[C@](C)(N2CCC(n3c(=O)oc4ccc(S(C)(=O)=O)cc43)CC2)CC1`, the half-maximal effective concentration (EC50) – broadly, the concentration that produces a half-maximal response – in data set [1] was 12.6 nM; in data set [2], 2510 nM; in data set [3], 1260 nM; in data set [4], 1580 nM; in data set [5], 1260 nM.
With `CCCO[C@H]1CC[C@](C)(N2CCC(n3c(=O)[nH]c4cc(F)c(C)cc43)CC2)CC1`, the EC50 was 0.398 nM in data set [1]; 20 nM in [2]; 79.4 nM in [3]; 12.6 nM in [4]; 12.6 nM in data set [5].
Turning to `CO[C@H]1CC[C@](C)(N2CCC(N3C(=O)Cc4ccc(C)cc43)CC2)CC1`, the concentration giving a half-maximal response (EC50) in data set [1] was 3.16 nM; in data set [2], 631 nM; in data set [3], 316 nM; in data set [4], 158 nM; in data set [5], 126 nM.
Consider `CCO[C@H]1CC[C@](C)(N2CCC(n3c(=O)oc4c(F)cc(C)cc43)CC2)CC1`, for which the EC50 in [1] was 1.26 nM; in data set [2], 794 nM; in [3], 2000 nM; in [4] it was 200 nM; in [5], 158 nM.
Consider `CCCO[C@H]1CC[C@](C)(N2CCC(n3c(=O)oc4ccc(S(C)(=O)=O)cc43)CC2)CC1`, for which the EC50 was 2.51 nM in [1]; 794 nM in data set [2]; 3160 nM in data set [3]; 501 nM in data set [4]; 316 nM in data set [5]. Besides, the CL/F – broadly, the apparent clearance, not corrected for the fraction that reaches the circulation – in data set [6] worked out at 11 mL/min/kg. Further, the Kp – broadly, the ratio of the level in a tissue or fluid to that in plasma or blood – in data set [7] turned out to be 0.8. For the same compound, the Drug uptake is 74% in data set [8] and 60% in data set [9].
`CCO[C@H]1CC[C@](C)(N2CCC(N3C(=O)Cc4ccc(C)cc43)CC2)CC1`: the EC50 in [1] is 0.398 nM; in data set [2] it was 100 nM; in data set [3], 126 nM; in [4] it was 31.6 nM; in data set [5] it was 20 nM.
As for `CCO[C@H]1CC[C@](C)(N2CCC(n3c(=O)oc4ccc(OC)cc43)CC2)CC1`, the EC50 is 2.51 nM in [1]; 398 nM in data set [2]; 1580 nM in data set [3]; 158 nM in [4]; 158 nM in data set [5].
On to `COCCO[C@H]1CC[C@](C)(N2CCC(n3c(=O)oc4ccc(C#N)cc43)CC2)CC1`, for which the EC50 in [1] was 10 nM; in data set [2], 2510 nM; in data set [3], 3980 nM; in [4], 794 nM; in [5] it was 1000 nM. The compound also displayed an apparent clearance (CL/F) in [6] of 23 mL/min/kg. In [7], the Kp was 1.7. Moreover, the figures for the Drug uptake in data set [8] and in data set [9] were 61% and 42%, respectively. In data set [10], the inhibition – broadly, the share of the control response that was lost under treatment – was 75%. For the same compound, in data set [11], the outcome was Active. The Activity result in [12] is “Dose-dependent effect”.
Consider `CCO[C@H]1CC[C@](C)(N2CCC(n3c(=O)oc4ccc(S(=O)(=O)CC)cc43)CC2)CC1`, for which the 50% effective concentration (EC50) was 200 nM in data set [1]; more than 15800 nM in data set [2]; 398 nM in [3]; 1580 nM in [4]; 5010 nM in data set [5].
On the same counts, the results for `CO[C@H]1CC[C@](C)(N2CCC(n3c(=O)oc4ccc(C)cc43)CC2)CC1` are 7.94 nM, 1260 nM, 2000 nM, 501 nM and 398 nM.
Consider `CCO[C@H]1CC[C@](C)(N2CCC(n3c(=O)oc4cc(F)c(C)cc43)CC2)CC1`, for which the EC50 was 1 nM in [1]; 501 nM in [2]; 794 nM in [3]; 100 nM in data set [4]; 50.1 nM in data set [5].
On to `CCO[C@H]1CC[C@](C)(N2CCC(n3c(=O)oc4ccccc43)CC2)CC1`, for which the EC50 is 25.1 nM in data set [1]; more than 15800 nM in data set [2]; more than 15800 nM in data set [3]; 126 nM in data set [4]; 1000 nM in data set [5].
For the compound `COCCO[C@H]1CC[C@](C)(N2CCC(n3c(=O)oc4ccc(C)cc43)CC2)CC1`, the EC50 in data set [1] was 2.51 nM; in data set [2] it was 631 nM; in [3], 631 nM; in data set [4], 200 nM; in data set [5], 158 nM.
For the compound `CCO[C@H]1CC[C@](C)(N2CCC(n3c(=O)oc4ccc(C#N)cc43)CC2)CC1`, the EC50 in data set [1] was 3.16 nM; in data set [2], 2510 nM; in [3] it was 2510 nM; in data set [4], 794 nM; in [5], 398 nM.
Consider `CCCO[C@H]1CC[C@](C)(N2CCC(N3C(=O)Cc4ccc(C)cc43)CC2)CC1`, for which the EC50 was 0.501 nM in [1]; 63.1 nM in data set [2]; 63.1 nM in [3]; 39.8 nM in [4]; 20 nM in [5]. The CL/F in data set [6] is 85 mL/min/kg. For the same compound, the Kp in data set [13] turned out to be 5.7. Besides, the values for the Drug uptake in [8] and in [9] were 94% and 80%, respectively.
Take `Cc1cc2c(cc1F)[nH]c(=O)n2C1CCN(C2CCOCC2)CC1`: the figures for the EC50 in data set [1], in data set [3] and in [4] were 5.01 nM, 2510 nM and 251 nM, respectively.
